This note sets out measurements from ChEMBL document CHEMBL1141017, “Triterpene based compounds with potent anti-maturation activity against HIV-1” (Bioorg Med Chem Lett, 2008).

Data set [1] can be described thus: Cmax in Sprague-Dawley rat at 7.5 mg/kg, po. The class given is ADME, organism-based. Also on record: dose 7.5 mg/kg, route oral. The settings on record: in vivo.
Data set [2] is described as follows: Tmax in Sprague-Dawley rat at 7.5 mg/kg, po. The class given is ADME, organism-based. More on the design: dose 7.5 mg/kg, route oral. To be noted: in vivo.
A short description of data set [3]: Cytotoxicity against human MT4 cells after 4 days by cell viability assay. The class given is cell-based. The settings on record: read-out: TC50.
Data set [4] in a line: Oral bioavailability in Sprague-Dawley rat at 7.5 mg/kg. The settings on record: in vivo. The class given is ADME, organism-based.
Data set [5] can be described thus: Tmax in Sprague-Dawley rat at 10 mg/kg, po. To be noted: in vivo. More on the design: dose 10 mg/kg, route oral. The class given is ADME, organism-based.
The nature of data set [6]: Oral bioavailability in Sprague-Dawley rat at 10 mg/kg. The class given is ADME, organism-based. The settings on record: in vivo.
The nature of data set [7]: Metabolic stability in Sprague-Dawley rat liver microsomes assessed as compound remaining after 40 mins. The format is ADME, Microsome. To be noted: read-out: Stability. Background: Microsomes from liver hold many membrane-bound enzymes, among them those of drug oxidation.
Data set [8] concerns Human immunodeficiency virus 1. Description: Antiviral activity against HIV1 NL4-3 infected in human MT4 cells assessed as cytoprotection against virus-induced cytopathic effect after 4 days by cell viability assay. The class given is functional, organism-based. The settings on record: Human immunodeficiency virus 1, NL4-3, MT4, 96 h. On the technique in general: Protection from cytopathic effect is a common read-out in antiviral testing.

Data set [9] can be described thus: Metabolic stability in human liver microsomes assessed as compound remaining after 40 mins. The class given is ADME, Microsome. To be noted: read-out: Stability.
Data set [10] can be described thus: Cytotoxicity against human PBMC by cell viability assay. The class given is cell-based. The settings on record: read-out: TC50 (the source's name).
Data set [11] in a line: Half life in Sprague-Dawley rat at 7.5 mg/kg, po. The class given is ADME, organism-based. Also on record: dose 7.5 mg/kg, route oral. To be noted: in vivo.
Data set [12] in a line: Half life in Sprague-Dawley rat at 10 mg/kg, po. More on the design: dose 10 mg/kg, route oral. The settings on record: in vivo. The class given is ADME, organism-based.
Data set [13] can be described thus: Cmax in Sprague-Dawley rat at 10 mg/kg, po. The class given is ADME, organism-based. Also on record: dose 10 mg/kg, route oral. The settings on record: in vivo.
Data set [14] can be described thus: AUC (0 to infinity) in Sprague-Dawley rat at 10 mg/kg, po. The format is ADME, organism-based. More on the design: time infinity, dose 10 mg/kg, route oral. The settings on record: plasma.
Data set [15] can be described thus: AUC (0 to infinity) in Sprague-Dawley rat at 7.5 mg/kg, po. The class given is ADME, organism-based. Also on record: time infinity, dose 7.5 mg/kg, route oral. The settings on record: plasma.
Data set [16] has as its system Human immunodeficiency virus 1. Kind of data set: Antiviral activity against HIV1 3B replication in human PBMC assessed as reverse transcriptase activity after 7 days. The class given is functional, organism-based. To be noted: Human immunodeficiency virus 1, 3B, 168 h.

The Cmax is the highest concentration seen after dosing. By Tmax is commonly meant the time at which the peak concentration occurs. By bioavailability is commonly meant the share of a dose that reaches the circulation, judged against a reference dose that is usually intravenous. Broadly, the EC50 is the concentration that produces a half-maximal response. Broadly, the half-life is the time needed for the level to fall by half in the phase considered. Low values mean rapid decline, high ones slow decline. One may read the AUC(0-inf) as the area under the concentration-time curve extrapolated to infinity. One may read the IC50 as the concentration at which inhibition is half-maximal. For `C=C(C)[C@@H]1CC[C@]2(C(=O)NCCc3ccccc3C(=O)NCCC(=O)O)CC[C@]3(C)[C@H](CC[C@@H]4[C@@]5(C)CC[C@H](OC(=O)CC(C)(C)C(=O)O)C(C)(C)[C@@H]5CC[C@]43C)[C@@H]12`, the figures for the Cmax in [1] and in data set [13] were 860 nM and 70 nM, respectively. Moreover, the Tmax in data set [2] came to 1 h; in data set [5], 4 h. Also, in data set [3], the CC50 at 96 h stood at 9.6 µM. The bioavailability was 15.5% in data set [4] and 1.6% in data set [6]. Besides, the remaining at 40 min in data set [7] and in data set [9] was greater than 40% in each case. Besides, the EC50 in data set [8] stood at 0.0031 µM. For the same molecule, in [10], the CC50 came to 11 µM. Moreover, the half-life in data set [11] was 4.54 h; in [12], 7.8 h. In addition, the AUC(0-inf) in data set [14] came to 1260 ng·h/mL; in data set [15], 1650 ng·h/mL. For the same molecule, the IC50 in [16] is 0.0094 µM.
